The values below come from patent publication US20190111040A1, “IN VIVO AMELIORATION OF ENDOGENOUS ANTI-TUMOR AUTOANTIBODIES TARGETING SURFACE TUMOR ANTIGENS VIA LOW-DOSE P4N” (THE JOHNS HOPKINS UNIVERSITY, priority 2016, published 2019).

Molecules are shown by their SMILES.

For one experiment, the system named is Raji or OKT3 cells. The experiment can be described thus: Cell proliferation assay with THP-1-conditioned media. In kind it is cell-based. The conditions noted are these: conditioned medium from THP-1 cells treated with P4N and the inhibitor. The method, then: (§1) FIGS. 5A-5F depict the expression of Activin A/BAFF induced by P4N treatments. (A) P4N induced Activin A or BAFF expression in human PBMCs as determined by RT-PCR. S1-S5 display different individual blood samples collected from 5 different human donors; N, no treatment; P, P4N-treatment (3 μM). The change in Activin A and BAFF expression (mean of 5 patients) relative to the control (NC) is plotted as a histogram (B) The effect of increasing dosages of P4N for 12 h on mRNA and protein levels of Activin A or BAFF in THP-1 cells was analyzed by RT-PCR and ELISA. (C) The effect of 6 μM P4N on mRNA and protein levels of Activin A or BAFF in THP-1 cells was determined at a different time period. (D) The effect of different inhibitors on Activin A-induced BAFF expression was examined. The expression of BAFF mRNA in inhibitor-treated THP-1 cells was determined by RT-PCR, and (E) BAFF protein secretion was measured by ELISA. (F) The effect of THP-1 conditioned media on the proliferation of Raji cells and OKT3 hybridoma cells were determined. Media were harvested, in which THP-1 cells were pre-treated without inhibitor (2) or with SB431542 (3), A83-01 (4), SIS3 (5), SB203580 (6) or PD98059 (7) and then treated with P4N for 12 h. The results are expressed as % viable cells relative to the control (NC, media from untreated THP-1 cells). All values are the means of triplicate samples±SEM. The significant differences in the results of inhibitor and P4N-treated groups compared with the untreated group are indicated by ***P<0.001.
Cell proliferation assay. Raji or OKT3 cells (1×10^4/well) were seeded and treated with THP-1-conditioned media. After 48 h the number of viable cells was determined by MTT assay. The indices of cell proliferation were calculated as previously described.

The subject of experiment [1] is THP-1 cells. The experiment can be described thus: Effect of inhibitors on Activin A-induced BAFF expression in THP-1 cells. It is filed as cell-based. The conditions noted are these: THP-1 cells treated with inhibitor and P4N. The protocol: as §1
Reverse transcription PCR. Human PBMCs or THP-1 cells were treated with P4N, and then the mRNA expression of INHBA and BAFF in these cells was measured by reverse transcription PCR. Briefly, total cellular RNA was extracted with Trizol reagent (Invitrogen) and reverse-transcribed into cDNA using the Superscript RT-kit (Invitrogen). The cDNA of INHBA and BAFF were then amplified by PCR. GAPDH cDNA in the samples was used to normalize the loading amounts in each reaction. Finally, PCR products were resolved by electrophoresis on 2% agarose gels and visualized with ethidium bromide.

For experiment [2], the system named is THP-1 cells. The experiment can be described thus: TNF-α, IL-8 and Activin A ELISA in THP-1 cells with bestatin and P4N. In kind it is cell-based. The conditions noted are these: 10 μM bestatin 2 h, then 3 μM P4N. The protocol:
FIGS. 6A-6E show P4N directly regulated LTA4H to induce monocyte inflammation. (A) P4N (orange) was docked with LTA4H by iGEMDOCK software (gemdock.life.nctu.edu.tw/dock/igemdock.php). RB3041 (Pink) is a small molecule inhibitor that identifies the active site of LTA4H. The amino acids that potentially interact with P4N are noted. The effects of P4N and bestatin on monocytes and their expression of (B) LTB4, (C) TNF-α, (D) IL-8, or (E) Activin A were determined and shown for different times. All values were expressed as the mean±SEM. **P<0.05, group P4N vs group (P4N+bestatin).
ELISA assays. THP-1 cells (1×10^6 cells/ml/well) in a 24-well culture plate were pretreated with 10 μM bestatin (a LTA4H inhibitor, Sigma-Aldrich) for 2 h and then treated with 3 μM P4N for various time intervals. The levels of LTB4 in the culture media were determined by the LTB4 (Enzo Life Sciences, Farmingdale, N.Y.) (R&D) ELISA Kits. The amount of TNF-α, IL-8 and Activin A in cultured media were measured in a similar manner.

Another experiment concerns LTB4 production. The following applies: reference (32); cited from earlier work.

Turning to `Cc1cccc(-c2nn(C(=S)Nc3ccccc3)cc2-c2ccnc3ccccc23)n1` [A83-01], the “proliferative activity of conditioned medium on Raji or OKT3 cells” value (from here on “proliferative activity”) in the experiment on Raji or OKT3 cells was “lost its activity”. Besides, the “BAFF transcription and protein expression” value with THP-1 cells [1] was “significantly reduced”.

With `CC(C)C[C@H](NC(=O)[C@@H](O)[C@H](N)Cc1ccccc1)C(=O)O` [Bestatin], in the experiment with THP-1 cells [2], the “P4N-induced expression of Activin A” value was “inhibited”; the “expression of TNF-α and IL-8” value is on record as “not suppressed”.

On to `CC(Cc1ccc(O)c(O)c1)C(C)Cc1ccc(O)c(O)c1` (centres unmarked) [NDGA, Nordihydroguaiaretic acid], for which, in the experiment on LTB4 production, the LTB4 production result is given as “inhibits LTB4 production”.

For `COc1cccc(-c2cc(=O)c3ccccc3o2)c1N` [PD98059], the “BAFF transcription and protein expression” value in the experiment with THP-1 cells [1] is listed as “had fewer effects”.

As for `C[S+]([O-])c1ccc(-c2nc(-c3ccncc3)c(-c3ccc(F)cc3)[nH]2)cc1` (centres unmarked) [SB203580], in the experiment on THP-1 cells [1], the “BAFF transcription and protein expression” value is “had fewer effects”. On to `NC(=O)c1ccc(-c2nc(-c3ccc4c(c3)OCO4)c(-c3ccccn3)[nH]2)cc1` [SB431542], for which the “proliferative activity” value with Raji or OKT3 cells is listed as “lost its activity”. The “BAFF transcription and protein expression” value with THP-1 cells [1] is listed as “significantly reduced”.

Regarding `COc1cc2c(cc1OC)CN(C(=O)/C=C/c1c(-c3ccccc3)n(C)c3ncccc13)CC2` [SIS3], in the experiment on Raji or OKT3 cells, the “proliferative activity” value is “lost its activity”. For the same compound, the “BAFF transcription and protein expression” value in the experiment with THP-1 cells [1] is “significantly reduced”.
